Assay results: ChEMBL document CHEMBL1127174, “Inhibition of cartilage breakdown by isothiazolones” (Bioorg Med Chem Lett, 1993)

Organism: Bos taurus
Assay: In vitro ability to inhibit cartilage breakdown by using 1L-1beta stimulated bovine nasal cartilage assay
Assay type: functional

Compound | IC50 [µM]
O=c1c2cccnc2sn1-c1ccc(Cl)cc1 | 3.7
COc1ccc(-n2sc3ccccc3c2=O)cc1 | > 30
Nc1ccccc1C(=O)Nc1ccccc1 | > 30
O=c1c2ccccc2sn1-c1ccccc1 | 3
COc1ccc(-n2sc3ncccc3c2=O)cc1 | 13.5
O=c1c2ccccc2sn1-c1ccc(Cl)cc1 | 3.6
O=c1ccsn1-c1ccccc1 | > 30
CNC(=O)C(Cc1ccc(OC)cc1)NC(=O)[C@H](CC(C)C)[C@H](C)C(=O)NO (single isomer, unassigned) | 3
O=c1c2ccccc2[se]n1-c1ccccc1 [EBSELEN] | 13
COc1ccc2c(c1)c(CC(=O)O)c(C)n2C(=O)c1ccc(Cl)cc1 [INDOMETHACIN] | > 30
COc1ccc2cc([C@H](C)C(=O)O)ccc2c1 [NAPROXEN] | > 30
O=C(Nc1ccccc1)c1ccccc1O [SALICYLANILIDE] | > 30
CN(C)[C@@H]1C(O)=C(C(N)=O)C(=O)[C@@]2(O)C(O)=C3C(=O)c4c(O)cccc4[C@@](C)(O)[C@H]3C[C@@H]12 [TETRACYCLINE] | > 30
